{"source": "paper PMC4281354", "about": "“The opioid receptor pharmacology of GSK1521498 compared to other ligands with differential effects on compulsive reward-related behaviours” (Psychopharmacology, 2014)", "key": {"human NOPr": {"target": "human NOPr (Homo sapiens, UniProt P41146)", "sequence (P41146 whole entry)": "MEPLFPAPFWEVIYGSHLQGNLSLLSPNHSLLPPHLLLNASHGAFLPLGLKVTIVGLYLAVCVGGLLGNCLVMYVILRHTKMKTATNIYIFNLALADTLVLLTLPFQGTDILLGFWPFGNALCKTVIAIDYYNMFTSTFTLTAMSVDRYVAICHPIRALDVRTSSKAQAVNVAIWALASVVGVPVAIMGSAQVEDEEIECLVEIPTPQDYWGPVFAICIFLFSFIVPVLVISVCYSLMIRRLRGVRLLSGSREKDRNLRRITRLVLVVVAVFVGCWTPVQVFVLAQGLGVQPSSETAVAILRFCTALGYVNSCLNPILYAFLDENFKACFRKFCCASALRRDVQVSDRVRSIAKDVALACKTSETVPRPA", "test": "Antagonism of nociceptin-stimulated [35S]GTPγS binding, CHO membranes overexpressing NOPr (SPA, antagonist mode)", "format": "biochemical"}, "MOPr [1]": {"target": "T1, MOPr (Homo sapiens, UniProt P35372)", "T1 sequence (P35372 whole entry)": "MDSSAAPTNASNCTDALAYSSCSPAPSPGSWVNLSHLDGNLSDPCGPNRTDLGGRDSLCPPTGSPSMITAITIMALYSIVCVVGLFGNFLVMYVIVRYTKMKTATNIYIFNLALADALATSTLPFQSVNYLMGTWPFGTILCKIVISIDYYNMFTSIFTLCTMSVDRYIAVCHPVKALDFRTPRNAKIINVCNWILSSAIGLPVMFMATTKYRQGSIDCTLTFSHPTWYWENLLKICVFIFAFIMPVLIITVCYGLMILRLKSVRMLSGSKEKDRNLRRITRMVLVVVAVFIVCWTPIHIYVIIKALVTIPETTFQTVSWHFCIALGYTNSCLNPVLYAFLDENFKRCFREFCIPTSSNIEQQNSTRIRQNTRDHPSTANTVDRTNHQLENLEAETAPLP", "test": "Basal [35S]GTPγS binding, CHO membranes overexpressing MOPr (agonist mode)", "format": "biochemical"}, "MOPr [2]": {"target": "T1, MOPr", "test": "Antagonism of Met-Enk-stimulated [35S]GTPγS binding, CHO membranes overexpressing MOPr (SPA, antagonist mode)", "format": "biochemical"}, "MOPr [3]": {"target": "T1, MOPr", "test": "[3H]naloxone competition displacement binding, MOPr-HEK293 membranes"}, "cocaine seeking": {"tested_on": "cocaine seeking", "parameters": "method as in Giuliano et al. [2013]", "settings": "ref Giuliano et al. [2013]; cited from earlier work"}, "MOPr [4]": {"target": "T1, MOPr", "test": "Basal [35S]GTPγS binding, membranes from CHO cells expressing a low level of MOPr", "format": "biochemical", "settings": "1 μM, CHO MOPr approximately 70 fmol per milligram of protein"}, "human DOPr": {"target": "human DOPr (Homo sapiens, UniProt P41143)", "sequence (P41143 whole entry)": "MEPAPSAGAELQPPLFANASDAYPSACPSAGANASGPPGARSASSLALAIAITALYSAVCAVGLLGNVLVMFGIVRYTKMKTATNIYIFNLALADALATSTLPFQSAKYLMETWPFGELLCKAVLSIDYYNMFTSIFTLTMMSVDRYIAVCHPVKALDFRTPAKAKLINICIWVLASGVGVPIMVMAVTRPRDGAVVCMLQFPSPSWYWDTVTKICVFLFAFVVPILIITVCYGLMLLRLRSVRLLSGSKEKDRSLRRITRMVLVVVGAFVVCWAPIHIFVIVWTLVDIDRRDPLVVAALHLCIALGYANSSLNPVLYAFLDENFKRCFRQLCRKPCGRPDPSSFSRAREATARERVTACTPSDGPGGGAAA", "test": "Antagonism of Met-Enk-stimulated [35S]GTPγS binding, CHO membranes overexpressing DOPr (SPA, antagonist mode)", "format": "biochemical"}, "heroin seeking": {"tested_on": "heroin seeking", "parameters": "method as in Giuliano et al. [2013]", "settings": "ref Giuliano et al. [2013]; cited from earlier work"}, "human KOPr": {"target": "human KOPr (Homo sapiens, UniProt P41145)", "sequence (P41145 whole entry)": "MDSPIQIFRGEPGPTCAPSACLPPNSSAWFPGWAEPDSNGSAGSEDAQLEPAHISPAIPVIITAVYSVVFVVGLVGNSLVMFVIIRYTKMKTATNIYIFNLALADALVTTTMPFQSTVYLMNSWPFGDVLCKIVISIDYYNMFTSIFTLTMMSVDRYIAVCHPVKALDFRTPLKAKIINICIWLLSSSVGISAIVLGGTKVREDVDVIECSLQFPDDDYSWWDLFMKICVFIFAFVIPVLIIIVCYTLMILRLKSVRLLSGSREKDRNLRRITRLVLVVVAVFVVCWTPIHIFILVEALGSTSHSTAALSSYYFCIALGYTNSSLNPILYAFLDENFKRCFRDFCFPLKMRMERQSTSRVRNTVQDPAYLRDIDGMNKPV", "test": "Antagonism of dynorphin-stimulated [35S]GTPγS binding, CHO membranes overexpressing KOPr (SPA, antagonist mode)", "format": "biochemical"}, "MOPr [5]": {"target": "T1, MOPr", "test": "[3H]naloxone dissociation kinetics from MOPr, MOPr-HEK293 membranes", "format": "binding", "settings": "drug 1 μM"}, "[6]": {"target": "MOPr in mouse brain membranes (Mus musculus, UniProt P42866)", "sequence (P42866 whole entry)": "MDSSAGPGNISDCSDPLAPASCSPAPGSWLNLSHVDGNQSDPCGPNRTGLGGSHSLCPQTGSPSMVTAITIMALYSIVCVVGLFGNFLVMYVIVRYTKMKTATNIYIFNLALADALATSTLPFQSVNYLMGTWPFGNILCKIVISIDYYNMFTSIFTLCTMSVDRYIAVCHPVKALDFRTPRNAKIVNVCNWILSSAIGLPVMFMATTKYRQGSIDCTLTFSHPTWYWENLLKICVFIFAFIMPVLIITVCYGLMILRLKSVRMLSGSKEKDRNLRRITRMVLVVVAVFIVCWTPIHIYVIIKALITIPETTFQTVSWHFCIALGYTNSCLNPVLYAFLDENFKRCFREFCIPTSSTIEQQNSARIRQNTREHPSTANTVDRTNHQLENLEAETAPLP", "test": "Basal [35S]GTPγS binding, whole mouse brain membranes (naive or morphine-pretreated mice)", "format": "biochemical", "settings": "1 μM"}, "[7]": {"tested_on": "K+ current in rat brain neurons", "parameters": "method as in Bailey et al. [2009]", "settings": "ref Bailey et al. [2009], read-out: EC50 for activation of the K+ current; cited from earlier work"}, "[8]": {"settings": "from fpKi, GTPγS antagonist mode"}}, "note": "Counter-ions that a name gives are not always drawn. Like-named read-outs stand apart in the source and are kept apart here.", "data": [{"smiles": "Oc1ccc2c3c1O[C@H]1[C@H](O)CC[C@@]4(O)[C@@H](C2)N(CC2CC2)CC[C@]314", "note": "[6β-Naltrexol, 6-β-naltrexol]", "values": [{"measurement": "Antagonist potency (fpKi) NOPr", "setting": "human NOPr; vs nociceptin, CHO cells overexpressing NOPr, mean ± SEM of three experiments", "result": "<5"}]}, {"smiles": "Fc1cc(-c2cccc(-c3nc[nH]n3)c2)cc(F)c1CNC1Cc2ccccc2C1.O=P(O)(O)O", "note": "[GSK1521498, N-{[3,5-difluoro-3′-(1H-1,2,4-triazol-3-yl)-4-biphenylyl]methyl}-2,3-dihydro-1H-inden-2-amine phosphate (1:1)]", "values": [{"measurement": "inhibition of basal [35S]GTPγS binding", "setting": "MOPr [1]; CHO membranes highly overexpressing MOPr (Bmax 14,500 fmol/mg protein)", "result": "up to 18%"}, {"measurement": "agonist activity when administered alone", "setting": "MOPr [1]; at any of the opioid receptors, concentrations up to 100 μM", "result": "did not show agonist activity"}, {"measurement": "concentrations producing a significant inhibition of basal [35S]GTPγS binding", "setting": "MOPr [1]; p < 0.001, ANOVA", "result": "greater than 0.4 nM"}, {"measurement": "completeness of inhibition of the agonist response at MOPr", "setting": "MOPr [2]; Met-Enk-stimulated GTPγS binding, CHO overexpressing MOPr", "result": "completely antagonize"}, {"measurement": "Ki", "setting": "MOPr [2]; vs Met-Enk, CHO cells overexpressing MOPr, mean ± SEM of three experiments, read-out: Antagonist potency (fpKi) MOPr (converted)", "result": 0.229, "unit": "nM"}, {"measurement": "maximum displacement of specific 3H-naloxone binding", "setting": "MOPr [3]; HEK293 MOPr membranes", "result": 100, "unit": "%"}, {"measurement": "Ki", "setting": "MOPr [3]; read-out: Affinity of binding (pKi) to MOPr (converted)", "result": 0.417, "unit": "nM"}, {"measurement": "greater reduction in cocaine seeking compared to naltrexone 3 mg/kg", "setting": "cocaine seeking", "result": 2.5, "unit": "fold"}, {"measurement": "effect on basal level of GTPγS binding", "setting": "MOPr [4]", "result": "did not modify"}, {"measurement": "selectivity for MOPr over DOPr", "setting": "human DOPr; [8]", "result": 14, "unit": "fold"}, {"measurement": "Ki", "setting": "human DOPr; vs Met-Enk, CHO cells overexpressing DOPr, mean ± SEM of three experiments, read-out: Antagonist potency (fpKi) DOPr (converted)", "result": 3.16, "unit": "nM"}, {"measurement": "greater reduction in heroin seeking compared to naltrexone 3 mg/kg", "setting": "heroin seeking", "result": 5.5, "unit": "fold"}, {"measurement": "selectivity for MOPr over KOPr", "setting": "human KOPr; [8]", "result": 14, "unit": "fold"}, {"measurement": "Ki", "setting": "human KOPr; vs dynorphin, CHO cells overexpressing KOPr, mean ± SEM of three experiments, read-out: Antagonist potency (fpKi) KOPr (converted)", "result": 3.31, "unit": "nM"}, {"measurement": "Ki", "setting": "human NOPr; vs nociceptin, CHO cells overexpressing NOPr, mean ± SEM of three experiments, read-out: Antagonist potency (fpKi) NOPr (converted)", "result": 257, "unit": "nM"}, {"measurement": "rate of 3H-naloxone dissociation in the presence of drug", "setting": "MOPr [5]", "result": "unchanged"}, {"measurement": "effect on basal [35S]GTPγS binding, naïve mice", "setting": "[6]; brain membranes from naïve mice", "result": "did not reduce"}, {"measurement": "effect on basal [35S]GTPγS binding, severe morphine pre-treatment", "setting": "[6]; brain membranes, 75 mg morphine pellet sc 3 days", "result": "very slight but statistically significant inhibition"}, {"measurement": "effect on basal [35S]GTPγS binding, acute morphine pre-treatment", "setting": "[6]; brain membranes, morphine 100 mg/kg sc 4 h before sacrifice", "result": "did not reduce"}, {"measurement": "effect on basal [35S]GTPγS binding, moderate morphine pre-treatment", "setting": "[6]; brain membranes, sc morphine at 8-h intervals for 3 days", "result": "did not reduce"}]}, {"smiles": "CSCC[C@H](NC(=O)[C@H](Cc1ccccc1)NC(=O)CNC(=O)CNC(=O)[C@@H](N)Cc1ccc(O)cc1)C(=O)O", "note": "[Met-Enk, methionine enkephalin acetate salt hydrate]", "values": [{"measurement": "EC50", "setting": "[7]", "result": 1000, "unit": "nM"}]}, {"smiles": "C=C1CC[C@@]2(O)[C@H]3Cc4ccc(O)c5c4[C@@]2(CCN3CC2CC2)[C@H]1O5", "note": "[Nalmefene, nalmefene, reference compound]", "values": [{"measurement": "enhancement of basal [35S]GTPγS binding", "setting": "MOPr [1]", "result": 20, "unit": "%"}, {"measurement": "completeness of inhibition of the agonist response at MOPr", "setting": "MOPr [2]", "result": "did not produce complete inhibition"}, {"measurement": "Ki", "setting": "human NOPr", "result": "> 10000", "unit": "nM"}]}]}
